Assay results reported in article PMC9856672, “SGC-CAMKK2-1: A Chemical Probe for CAMKK2” (Cells, 2023).

Columns and labels:
[1] = biological target: T1, TRPM6 (Homo sapiens, UniProt Q9BX84); experiment: KINOMEscan at 1 μM, TRPM6; type: binding; conditions: 1000 nM, read-out: Percent Control
T1 construct: purchased Eurofins DiscoverX KINOMEscan
Text: (§1) Supplement cells-12-00287-s001.zip/File S2. KinomeScan data for the CAMKK2 probe and negative control.xlsx, sheet "SGC-CAMKK2-1N" | column: Percent Control

[2] = biological target: T2, CDC2L5 (Homo sapiens, UniProt Q14004); experiment: KINOMEscan at 1 μM, CDC2L5; type: binding; conditions: 1000 nM, read-out: Percent Control
T2 construct: purchased Eurofins DiscoverX KINOMEscan
Text: as §1

[3] = biological target: T3, CAMK1D (Homo sapiens, UniProt Q8IU85); experiment: KINOMEscan at 1 μM, CAMK1D; type: binding; conditions: 1000 nM, read-out: Percent Control
T3 construct: purchased Eurofins DiscoverX KINOMEscan
Text: as §1

[4] = biological target: T4, ABL1(E255K)-phosphorylated (Homo sapiens, UniProt P00519, E255K); experiment: KINOMEscan at 1 μM, ABL1(E255K)-phosphorylated; type: binding; conditions: 1000 nM, read-out: Percent Control
T4 construct: purchased Eurofins DiscoverX KINOMEscan
Text: as §1

[5] = biological target: T5, NEK4 (Homo sapiens, UniProt P51957); experiment: KINOMEscan at 1 μM, NEK4; type: binding; conditions: 1000 nM, read-out: Percent Control
T5 construct: purchased Eurofins DiscoverX KINOMEscan
Text: as §1

[6] = biological target: T6, ABL1-phosphorylated (Homo sapiens, UniProt P00519); experiment: KINOMEscan at 1 μM, ABL1-phosphorylated; type: binding; conditions: 1000 nM, read-out: Percent Control
T6 construct: purchased Eurofins DiscoverX KINOMEscan
Text: as §1

[7] = biological target: T7, ULK2 (Homo sapiens, UniProt Q8IYT8); experiment: KINOMEscan at 1 μM, ULK2; type: binding; conditions: 1000 nM, read-out: Percent Control
T7 construct: purchased Eurofins DiscoverX KINOMEscan
Text: as §1

[8] = biological target: T8, STK36 (Homo sapiens, UniProt Q9NRP7); experiment: KINOMEscan at 1 μM, STK36; type: binding; conditions: 1000 nM, read-out: Percent Control
T8 construct: purchased Eurofins DiscoverX KINOMEscan
Text: as §1

[9] = biological target: T9, FGFR3 (Homo sapiens, UniProt P22607); experiment: KINOMEscan at 1 μM, FGFR3; type: binding; conditions: 1000 nM, read-out: Percent Control
T9 construct: purchased Eurofins DiscoverX KINOMEscan
Text: as §1

[10] = biological target: T10, ANKK1 (Homo sapiens, UniProt Q8NFD2); experiment: KINOMEscan at 1 μM, ANKK1; type: binding; conditions: 1000 nM, read-out: Percent Control
T10 construct: purchased Eurofins DiscoverX KINOMEscan
Text: as §1

[11] = biological target: T11, CSNK2A1 (Homo sapiens, UniProt P68400); experiment: KINOMEscan at 1 μM, CSNK2A1; type: binding; conditions: 1000 nM, read-out: Percent Control
T11 construct: purchased Eurofins DiscoverX KINOMEscan
Text: as §1

[12] = biological target: T12, CDK4 (Homo sapiens, UniProt P11802); experiment: KINOMEscan at 1 μM, CDK4; type: binding; conditions: 1000 nM, read-out: Percent Control
T12 construct: purchased Eurofins DiscoverX KINOMEscan
Text: as §1

[13] = biological target: T13, PCTK1 (Homo sapiens, UniProt Q00536); experiment: KINOMEscan at 1 μM, PCTK1; type: binding; conditions: 1000 nM, read-out: Percent Control
T13 construct: purchased Eurofins DiscoverX KINOMEscan
Text: as §1

[14] = biological target: T14, FLT3 (Homo sapiens, UniProt P36888); experiment: KINOMEscan at 1 μM, FLT3; type: binding; conditions: 1000 nM, read-out: Percent Control
T14 construct: purchased Eurofins DiscoverX KINOMEscan
Text: as §1

[15] = biological target: T15, DRAK1 (Homo sapiens, UniProt Q9UEE5); experiment: KINOMEscan at 1 μM, DRAK1; type: binding; conditions: 1000 nM, read-out: Percent Control
T15 construct: purchased Eurofins DiscoverX KINOMEscan
Text: as §1

[16] = biological target: T16, INSRR (Homo sapiens, UniProt P14616); experiment: KINOMEscan at 1 μM, INSRR; type: binding; conditions: 1000 nM, read-out: Percent Control
T16 construct: purchased Eurofins DiscoverX KINOMEscan
Text: as §1

[17] = biological target: T17, PRP4 (Homo sapiens, UniProt Q13523); experiment: KINOMEscan binding assay at 1 μM, PRP4; conditions: Compound Concentration 1000 nM; read-out: Percent Control
T17 construct: purchased Eurofins DiscoverX KINOMEscan
Text: as §1

[18] = biological target: T18, TNK1 (Homo sapiens, UniProt Q13470); experiment: KINOMEscan binding assay at 1 μM, TNK1; conditions: Compound Concentration 1000 nM; read-out: Percent Control
T18 construct: purchased Eurofins DiscoverX KINOMEscan
Text: as §1

[19] = biological target: T19, GCN2(Kin.Dom.2,S808G) (Homo sapiens, UniProt Q9P2K8, S808G); experiment: KINOMEscan 1 μM, GCN2(Kin.Dom.2,S808G); type: binding; conditions: 1000 nM; Entrez EIF2AK4; read-out: Percent Control
T19 construct: GCN2(Kin.Dom.2,S808G); purchased Eurofins DiscoverX KINOMEscan
Text: (§2) Supplement cells-12-00287-s001.zip/File S2. KinomeScan data for the CAMKK2 probe and negative control.xlsx, sheet "SGC-CAMKK2-1" | column: Percent Control

[20] = biological target: T20, PIK3CA(H1047L) (Homo sapiens, UniProt P42336, H1047L); experiment: KINOMEscan 1 μM, PIK3CA(H1047L); type: binding; conditions: 1000 nM; Entrez PIK3CA; read-out: Percent Control
T20 construct: purchased Eurofins DiscoverX KINOMEscan
Text: as §2

[21] = biological target: T21, TAOK1 (Homo sapiens, UniProt Q7L7X3); experiment: KINOMEscan 1 μM, TAOK1; type: binding; conditions: 1000 nM; Entrez TAOK1; read-out: Percent Control
T21 construct: purchased Eurofins DiscoverX KINOMEscan
Text: as §2

[22] = biological target: T22, BRSK1 (Homo sapiens, UniProt Q8TDC3); experiment: KINOMEscan 1 μM, BRSK1; type: binding; conditions: 1000 nM; Entrez BRSK1; read-out: Percent Control
T22 construct: purchased Eurofins DiscoverX KINOMEscan
Text: as §2

[23] = biological target: T16, INSRR; experiment: KINOMEscan 1 μM, INSRR; type: binding; conditions: 1000 nM; Entrez INSRR; read-out: Percent Control
Text: as §2

[24] = biological target: T23, GSK3A (Homo sapiens, UniProt P49840); experiment: KINOMEscan 1 μM, GSK3A; type: binding; conditions: 1000 nM; Entrez GSK3A; read-out: Percent Control
T23 construct: purchased Eurofins DiscoverX KINOMEscan
Text: as §2

[25] = biological target: T24, TSSK3 (Homo sapiens, UniProt Q96PN8); experiment: KINOMEscan 1 μM, TSSK3; type: binding; conditions: 1000 nM; Entrez TSSK3; read-out: Percent Control
T24 construct: purchased Eurofins DiscoverX KINOMEscan
Text: as §2

[26] = biological target: T25, AURKA (Homo sapiens, UniProt O14965); experiment: KINOMEscan 1 μM, AURKA; type: binding; conditions: 1000 nM; Entrez AURKA; read-out: Percent Control
T25 construct: purchased Eurofins DiscoverX KINOMEscan
Text: as §2

[27] = biological target: T26, ERK1 (Homo sapiens, UniProt P27361); experiment: KINOMEscan 1 μM, ERK1; type: binding; conditions: 1000 nM; Entrez MAPK3; read-out: Percent Control
T26 construct: purchased Eurofins DiscoverX KINOMEscan
Text: as §2

[28] = biological target: T27, FGR (Homo sapiens, UniProt P09769); experiment: KINOMEscan 1 μM, FGR; type: binding; conditions: 1000 nM; Entrez FGR; read-out: Percent Control
T27 construct: purchased Eurofins DiscoverX KINOMEscan
Text: as §2

[29] = biological target: T28, MARK1 (Homo sapiens, UniProt Q9P0L2); experiment: KINOMEscan 1 μM, MARK1; type: binding; conditions: 1000 nM; Entrez MARK1; read-out: Percent Control
T28 construct: purchased Eurofins DiscoverX KINOMEscan
Text: as §2

[30] = biological target: T29, MKNK2 (Homo sapiens, UniProt Q9HBH9); experiment: KINOMEscan 1 μM, MKNK2; type: binding; conditions: 1000 nM; Entrez MKNK2; read-out: Percent Control
T29 construct: purchased Eurofins DiscoverX KINOMEscan
Text: as §2

[31] = biological target: T30, PIK3CA(H1047Y) (Homo sapiens, UniProt P42336, H1047Y); experiment: DiscoverX KINOMEscan binding assay at 1 μM, PIK3CA(H1047Y); conditions: Compound Concentration 1000 nM, read-out: Percent Control
T30 construct: purchased Eurofins DiscoverX KINOMEscan
Text: as §2

[32] = biological target: T31, PIK3CD (Homo sapiens, UniProt O00329); experiment: DiscoverX KINOMEscan binding assay at 1 μM, PIK3CD; conditions: Compound Concentration 1000 nM, read-out: Percent Control
T31 construct: purchased Eurofins DiscoverX KINOMEscan
Text: as §2

[33] = biological target: T32, PKN2 (Homo sapiens, UniProt Q16513); experiment: DiscoverX KINOMEscan binding assay at 1 μM, PKN2; conditions: Compound Concentration 1000 nM, read-out: Percent Control
T32 construct: purchased Eurofins DiscoverX KINOMEscan
Text: as §2

[34] = biological target: T33, ROCK2 (Homo sapiens, UniProt O75116); experiment: DiscoverX KINOMEscan binding assay at 1 μM, ROCK2; conditions: Compound Concentration 1000 nM, read-out: Percent Control
T33 construct: purchased Eurofins DiscoverX KINOMEscan
Text: as §2

T16 sequence (P14616 27-1297): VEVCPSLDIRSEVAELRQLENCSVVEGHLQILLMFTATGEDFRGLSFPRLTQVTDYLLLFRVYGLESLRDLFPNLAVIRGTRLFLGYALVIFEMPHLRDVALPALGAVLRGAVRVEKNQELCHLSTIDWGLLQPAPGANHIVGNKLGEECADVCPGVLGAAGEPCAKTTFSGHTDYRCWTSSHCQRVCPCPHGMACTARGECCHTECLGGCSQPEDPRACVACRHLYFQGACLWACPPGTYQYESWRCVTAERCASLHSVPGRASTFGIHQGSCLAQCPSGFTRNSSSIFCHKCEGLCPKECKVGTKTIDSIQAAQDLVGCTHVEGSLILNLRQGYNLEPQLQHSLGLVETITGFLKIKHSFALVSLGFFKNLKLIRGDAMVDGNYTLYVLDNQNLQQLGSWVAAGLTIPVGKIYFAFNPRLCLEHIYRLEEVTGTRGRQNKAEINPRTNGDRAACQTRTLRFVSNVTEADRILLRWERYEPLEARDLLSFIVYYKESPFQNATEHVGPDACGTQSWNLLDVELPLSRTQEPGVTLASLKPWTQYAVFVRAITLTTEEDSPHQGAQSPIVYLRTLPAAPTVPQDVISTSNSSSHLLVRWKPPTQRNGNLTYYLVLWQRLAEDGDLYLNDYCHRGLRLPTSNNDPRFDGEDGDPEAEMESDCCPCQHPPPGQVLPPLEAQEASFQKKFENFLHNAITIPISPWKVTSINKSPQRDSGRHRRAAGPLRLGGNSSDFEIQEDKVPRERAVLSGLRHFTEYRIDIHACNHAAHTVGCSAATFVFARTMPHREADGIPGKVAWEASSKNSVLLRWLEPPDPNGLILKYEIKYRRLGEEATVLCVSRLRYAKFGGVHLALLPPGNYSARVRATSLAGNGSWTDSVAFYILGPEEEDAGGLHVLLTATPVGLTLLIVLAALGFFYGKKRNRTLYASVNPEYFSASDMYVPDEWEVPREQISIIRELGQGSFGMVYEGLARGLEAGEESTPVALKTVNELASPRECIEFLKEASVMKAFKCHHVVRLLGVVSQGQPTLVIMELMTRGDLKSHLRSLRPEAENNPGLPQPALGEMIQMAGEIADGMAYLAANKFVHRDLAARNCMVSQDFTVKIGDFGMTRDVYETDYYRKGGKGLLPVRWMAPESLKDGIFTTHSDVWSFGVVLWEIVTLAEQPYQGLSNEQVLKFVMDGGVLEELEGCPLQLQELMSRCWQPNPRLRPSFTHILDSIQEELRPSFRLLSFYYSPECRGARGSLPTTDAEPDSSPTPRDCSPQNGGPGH
T5 sequence (P51957 whole entry): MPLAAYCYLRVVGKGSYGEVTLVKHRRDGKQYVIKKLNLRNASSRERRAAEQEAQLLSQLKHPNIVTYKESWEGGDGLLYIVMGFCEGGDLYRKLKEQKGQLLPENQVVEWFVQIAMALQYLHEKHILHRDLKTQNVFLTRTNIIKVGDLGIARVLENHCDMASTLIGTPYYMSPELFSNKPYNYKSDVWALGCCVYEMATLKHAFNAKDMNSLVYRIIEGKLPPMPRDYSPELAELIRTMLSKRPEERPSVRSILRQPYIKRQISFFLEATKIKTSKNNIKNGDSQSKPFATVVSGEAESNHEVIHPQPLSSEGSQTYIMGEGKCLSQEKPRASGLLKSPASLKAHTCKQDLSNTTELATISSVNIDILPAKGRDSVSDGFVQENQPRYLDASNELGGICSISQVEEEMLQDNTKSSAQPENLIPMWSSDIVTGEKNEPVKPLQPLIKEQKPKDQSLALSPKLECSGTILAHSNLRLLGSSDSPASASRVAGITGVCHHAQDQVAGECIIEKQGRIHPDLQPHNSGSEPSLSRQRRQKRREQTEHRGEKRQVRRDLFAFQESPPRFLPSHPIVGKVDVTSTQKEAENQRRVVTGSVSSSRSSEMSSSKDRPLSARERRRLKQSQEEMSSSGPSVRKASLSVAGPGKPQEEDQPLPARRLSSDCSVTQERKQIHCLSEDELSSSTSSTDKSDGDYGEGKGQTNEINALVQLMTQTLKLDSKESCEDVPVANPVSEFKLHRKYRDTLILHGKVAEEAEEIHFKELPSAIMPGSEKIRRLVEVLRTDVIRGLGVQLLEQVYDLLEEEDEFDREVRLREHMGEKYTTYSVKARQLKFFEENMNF
T7 sequence (Q8IYT8 whole entry): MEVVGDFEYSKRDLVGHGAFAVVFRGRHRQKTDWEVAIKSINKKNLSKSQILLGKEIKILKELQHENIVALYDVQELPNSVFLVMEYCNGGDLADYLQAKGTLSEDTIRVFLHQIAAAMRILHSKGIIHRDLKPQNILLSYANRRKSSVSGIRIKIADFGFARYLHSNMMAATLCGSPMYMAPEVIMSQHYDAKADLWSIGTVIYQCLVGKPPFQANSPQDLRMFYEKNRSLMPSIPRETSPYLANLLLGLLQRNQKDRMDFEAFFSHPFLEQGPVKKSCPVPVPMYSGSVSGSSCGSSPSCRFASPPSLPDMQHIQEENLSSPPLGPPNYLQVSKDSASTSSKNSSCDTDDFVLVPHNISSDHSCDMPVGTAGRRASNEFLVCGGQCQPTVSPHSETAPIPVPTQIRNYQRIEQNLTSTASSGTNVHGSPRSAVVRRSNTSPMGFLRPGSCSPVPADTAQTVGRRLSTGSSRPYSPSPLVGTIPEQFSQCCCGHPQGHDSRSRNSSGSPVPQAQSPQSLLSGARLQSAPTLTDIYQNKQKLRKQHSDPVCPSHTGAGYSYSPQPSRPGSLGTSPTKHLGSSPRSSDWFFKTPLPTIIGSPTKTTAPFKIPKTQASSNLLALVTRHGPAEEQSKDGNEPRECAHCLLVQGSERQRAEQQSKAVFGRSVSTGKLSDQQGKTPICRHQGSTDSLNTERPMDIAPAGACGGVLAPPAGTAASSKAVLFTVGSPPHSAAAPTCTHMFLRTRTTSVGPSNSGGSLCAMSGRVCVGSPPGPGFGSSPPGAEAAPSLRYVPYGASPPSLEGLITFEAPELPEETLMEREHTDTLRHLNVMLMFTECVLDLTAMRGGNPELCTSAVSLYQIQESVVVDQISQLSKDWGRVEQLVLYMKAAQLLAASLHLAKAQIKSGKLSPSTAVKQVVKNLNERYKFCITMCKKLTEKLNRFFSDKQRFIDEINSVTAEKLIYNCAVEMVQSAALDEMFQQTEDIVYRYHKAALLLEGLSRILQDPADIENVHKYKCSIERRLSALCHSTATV
T30 sequence (P42336 whole entry H1047Y): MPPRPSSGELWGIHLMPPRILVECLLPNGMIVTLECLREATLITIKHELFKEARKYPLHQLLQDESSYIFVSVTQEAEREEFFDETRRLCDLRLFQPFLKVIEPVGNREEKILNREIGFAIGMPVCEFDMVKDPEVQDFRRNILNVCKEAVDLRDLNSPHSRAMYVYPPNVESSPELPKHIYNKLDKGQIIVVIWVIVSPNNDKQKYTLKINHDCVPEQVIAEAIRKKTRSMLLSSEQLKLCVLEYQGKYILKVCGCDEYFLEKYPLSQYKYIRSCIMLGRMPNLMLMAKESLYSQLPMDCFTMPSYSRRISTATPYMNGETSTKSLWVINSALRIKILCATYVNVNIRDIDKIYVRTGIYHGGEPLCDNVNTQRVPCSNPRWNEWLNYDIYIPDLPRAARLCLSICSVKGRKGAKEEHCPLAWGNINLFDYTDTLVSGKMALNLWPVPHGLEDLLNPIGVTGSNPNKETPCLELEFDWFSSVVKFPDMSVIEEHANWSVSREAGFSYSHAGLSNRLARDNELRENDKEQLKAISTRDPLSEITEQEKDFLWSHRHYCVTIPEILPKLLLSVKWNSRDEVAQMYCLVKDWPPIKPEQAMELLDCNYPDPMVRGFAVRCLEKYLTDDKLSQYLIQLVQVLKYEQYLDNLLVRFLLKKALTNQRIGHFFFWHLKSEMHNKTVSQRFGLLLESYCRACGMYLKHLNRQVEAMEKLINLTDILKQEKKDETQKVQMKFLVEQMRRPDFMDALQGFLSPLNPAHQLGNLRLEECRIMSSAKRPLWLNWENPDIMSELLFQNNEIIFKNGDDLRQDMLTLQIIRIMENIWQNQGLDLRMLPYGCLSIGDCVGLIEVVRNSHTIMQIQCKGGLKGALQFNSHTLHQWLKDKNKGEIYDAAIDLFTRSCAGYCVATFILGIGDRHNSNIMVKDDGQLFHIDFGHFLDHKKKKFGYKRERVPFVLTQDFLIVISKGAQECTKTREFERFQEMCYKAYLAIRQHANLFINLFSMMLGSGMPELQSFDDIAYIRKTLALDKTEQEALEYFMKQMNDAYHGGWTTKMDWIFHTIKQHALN
T20 sequence (P42336 whole entry H1047L): as the sequence (P42336 whole entry H1047Y) above, with Y1047L counted along it
T9 sequence (P22607 23-806): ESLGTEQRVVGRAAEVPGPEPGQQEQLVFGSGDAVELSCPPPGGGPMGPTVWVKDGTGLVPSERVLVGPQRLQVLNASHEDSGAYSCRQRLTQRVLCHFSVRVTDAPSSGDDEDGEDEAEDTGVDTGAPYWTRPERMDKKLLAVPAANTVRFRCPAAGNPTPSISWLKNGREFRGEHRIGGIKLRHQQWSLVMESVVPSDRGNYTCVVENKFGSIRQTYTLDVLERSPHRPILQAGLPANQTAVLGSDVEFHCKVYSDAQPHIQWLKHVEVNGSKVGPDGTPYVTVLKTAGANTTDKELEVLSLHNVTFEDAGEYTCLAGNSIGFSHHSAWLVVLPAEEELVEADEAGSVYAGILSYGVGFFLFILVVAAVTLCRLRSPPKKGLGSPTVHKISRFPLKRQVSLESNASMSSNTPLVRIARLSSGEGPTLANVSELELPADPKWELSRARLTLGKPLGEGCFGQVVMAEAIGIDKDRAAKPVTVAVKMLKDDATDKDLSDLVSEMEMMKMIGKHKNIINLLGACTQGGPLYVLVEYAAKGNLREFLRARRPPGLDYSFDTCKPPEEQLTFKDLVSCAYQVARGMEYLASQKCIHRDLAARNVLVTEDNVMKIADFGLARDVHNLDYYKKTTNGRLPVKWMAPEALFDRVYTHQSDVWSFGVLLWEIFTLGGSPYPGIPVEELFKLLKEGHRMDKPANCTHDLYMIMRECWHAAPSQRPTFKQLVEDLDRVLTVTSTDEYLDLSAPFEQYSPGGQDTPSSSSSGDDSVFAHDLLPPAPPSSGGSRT

SMILES: O=C(O)c1ccc(-c2coc3ncc(-c4ccccc4)cc23)cc1Cl [SGC-CAMKK2-1N (UNC-YL-83)]
- remaining binding at 1 µM [1]: 53%
- remaining binding at 1 µM [2]: 57%
- remaining binding at 1 µM [3]: 61%
- remaining binding at 1 µM [4]: 65%
- remaining binding at 1 µM [5]: 66%
- remaining binding at 1 µM [6]: 69%
- remaining binding at 1 µM [7]: 71%
- remaining binding at 1 µM [8]: 75%
- remaining binding at 1 µM [9]: 76%
- remaining binding at 1 µM [10]: 78%
- remaining binding at 1 µM [11]: 80%
- remaining binding at 1 µM [12]: 82%
- remaining binding at 1 µM [13]: 83%
- remaining binding at 1 µM [14]: 91%
- remaining binding at 1 µM [15]: 93%
- remaining binding at 1 µM [16]: 96%
- remaining binding at 1 µM [17]: 100%
- remaining binding at 1 µM [18]: 100%

SMILES: Cc1cccc(-c2cnc3occ(-c4ccc(C(=O)O)c(C5CCCC5)c4)c3c2)c1 [SGC-CAMKK2-1 (YL-36)]
- remaining binding at 1 µM [19]: 42%
- remaining binding at 1 µM [20]: 78%
- remaining binding at 1 µM [21]: 78%
- remaining binding at 1 µM [22]: 82%
- remaining binding at 1 µM [23]: 88%
- remaining binding at 1 µM [24]: 92%
- remaining binding at 1 µM [25]: 98%
- remaining binding at 1 µM [26]: 100%
- remaining binding at 1 µM [27]: 100%
- remaining binding at 1 µM [28]: 100%
- remaining binding at 1 µM [29]: 100%
- remaining binding at 1 µM [30]: 100%
- remaining binding at 1 µM [31]: 100%
- remaining binding at 1 µM [32]: 100%
- remaining binding at 1 µM [33]: 100%
- remaining binding at 1 µM [34]: 100%
